Measurements as given in patent US8710017B2, “Human and mouse targeting peptides identified by phage display” (priority 2000, dated 2014).
Peptide text beside a SMILES is read from it.

Legend:
APA (SK-RC-49/APA cells) = molecular target: T1, APA (SK-RC-49/APA cells) (Homo sapiens, UniProt Q07075); assay: Phage binding specificity assay on SK-RC-49/APA cells; assay type: cell-based; settings: soluble peptide in binding medium, not shown
T1 construct: The renal carcinoma cell line SK-RC-49 was transfected with an expression vector encoding full-length APA cDNA; expressed in transfected cells; host or cells: SK-RC-49 renal carcinoma cells, stably transfected (G418)
Experimental: The cell binding assay was performed with an input of 10^9 TU as described for the cell panning. The specificity was confirmed by adding […] (SEQ ID NO:123) peptide to the binding medium in increasing concentrations. For phage binding on immunocaptured APA, wells were blocked for 1 h at room temperature with PBS/3% BSA and incubated with 10^9 TU for 1 h at room temperature in 50 μl PBS/3% BSA. After eight washes in PBS/1% BSA/0.01% Tween-20 and two washes in PBS, phage were rescued by adding 200 μl of exponentially growing K91Kan E. coli. Each experiment was repeated at least three times.

HUVECs [1] = assay: Three-dimensional Matrigel culture of HUVECs (capillary-like network); assay type: cell-based, human; settings: not shown
Experimental: Matrigel (Collaborative Research, Bedford, Mass.) was added at 100 μl per well to 48-well tissue culture plates and allowed to solidify for 10 min at 37° C. HUVECs were starved for 24 h in M199 medium supplemented with 2% FCS before being harvested in PBS containing 2.5 mM EDTA. 10^4 cells were gently added to each of the triplicate wells and allowed to adhere to the gel coating for 30 min at 37° C. Then, medium was replaced with indicated concentrations of […] (SEQ ID NO:123) or […] (SEQ ID NO:124) peptides in complete medium. The plates were photographed after 24 h with an inverted microscope (Canon). The assay was repeated three times.

HUVECs [2] = assay: HUVEC chemotaxis assay (Boyden chamber, VEGF-A); assay type: cell-based, human
Experimental: FIG. 24. […] (SEQ ID NO:123) inhibits HUVEC migration. HUVECs were stimulated with VEGF-A (10 ng/ml). The assay was performed in a Boyden microchemotaxis chamber, and cells were allowed to migrate through an 8-μm pore filter for 5 h at 37° C. […] (SEQ ID NO:124) (control) and […] (SEQ ID NO:123) peptides were tested at 1 mM concentration. Migrated cells were stained and five high-power fields (magnitude 100×) for each microwell were counted. Error bars are the standard error of the means of triplicate microwells.
A cell migration assay was performed in a 48-well microchemotaxis chamber (NeuroProbe, Gaithersburg, Md.) according to Bussolini et al. (1995). Polyvinylpyrrolidone-free polycarbonate filters (Nucleopore, Cambridge, Mass.) with 8-μm pores were coated with 1% gelatin for 10 min at room temperature and equilibrated in M199 medium supplemented with 2% FCS. […] (SEQ ID NO:123) or control […] (SEQ ID NO:124) peptide (1 mM) was placed in the lower compartment of a Boyden chamber in M199 medium supplemented with 2% FCS and 10 ng/ml VEGF-A (R&D System). Subconfluent cultures that had been starved overnight were harvested in PBS containing 2.5 mM EDTA, washed once in PBS, and resuspended in M199 medium containing 2% FCS at a final concentration of 2×10^6 cells/ml. After the filter was placed between the lower and upper chambers, 50 μl of the cell suspension was seeded in the upper compartment, and cells were allowed to migrate for 5 h at 37° C. in a humidified atmosphere with 5% CO2. The filter was then removed, and cells on the upper side were scraped with a rubber policeman. Migrated cells were fixed in methanol and stained with Giemsa solution (Diff-Quick, Baxter Diagnostics, Rome, Italy). Five random high-power fields (magnitude 100×) were counted in each well. Each assay was run in triplicate.

HUVECs [3] = assay: HUVEC cell growth assay (crystal violet, VEGF-A); assay type: cell-based, human
Experimental: FIG. 25. […] (SEQ ID NO:123) inhibits HUVEC proliferation. Cells were stimulated with VEGF-A (10 ng/ml), and growth was evaluated at the indicated times by a colorimetric assay based on crystal violet staining. Error bars are the standard error of the means of triplicate wells. Each experiment was repeated at least twice with similar results.
HUVECs were seeded in 48-well plates (10^4 cells/well) and allowed to attach for 24 h in complete M199 medium. The cells were then starved in M199 medium containing 2% FCS for 24 h. […] (SEQ ID NO:123) or control […] (SEQ ID NO:124) peptide (1 mM) was added to the wells in medium containing 2% FCS and 10 ng/ml VEGF-A (R&D System, Abingdom, UK). After incubation for the indicated times, cells were fixed in 2.5% glutaraldehyde, stained with 0.1% crystal violet in 20% methanol, and solubilized in 10% acetic acid. All treatments were done in triplicate. Cell growth was evaluated by measuring the O.D. at 590 nm in a microplate reader (Biorad, Hercules, Calif.). A calibration curve was established and a linear correlation between O.D. and cell counts was observed between 10^3 and 10^5 cells.

[4] = tested on: chicken chorioallantoic membrane (CAM); assay: CAM assay for angiogenesis; assay type: in vivo
Experimental: In vivo angiogenesis was evaluated by a CAM assay (Ribatti et al., 1994). Fertilized eggs from White Leghorn chickens were maintained in constant humidity at 37° C. On the third day of incubation, a square window was opened in the eggshell and 2-3 ml of albumen was removed to detach the developing CAM from the shell. The window was sealed with a glass plate of the same size and the eggs were returned to the incubator. At day 8, 1 mm^3 sterilized gelatin sponges (Gelfoam, Upjohn Co, Kalamazoo, Milan) were adsorbed with VEGF-A (20 ng, R&D System) and either […] (SEQ ID NO:123) or control […] (SEQ ID NO:124) peptide (1 mM) in 3 μl PBS and implanted on the top of the growing CAMs under sterile conditions. CAMs were examined daily until day 12 and photographed in ovo with a Leica stereomicroscope. Capillaries emerging from the sponge were counted. The assay was repeated twice.

[5] = molecular target: T2, Aminopeptidase A (APA, EC 3.4.11.7) (Homo sapiens, UniProt Q07075); assay: APA enzyme assay (α-glutamyl-p-nitroanilide, SK-RC-49/APA cells); assay type: biochemical; settings: highest concentration tested
T2 construct: The renal carcinoma cell line SK-RC-49 was transfected with an expression vector encoding full-length APA cDNA; expressed in transfected cells; host or cells: SK-RC-49 renal carcinoma cells, stably transfected (G418)

[6] = molecular target: T3, β3 integrin cytoplasmic domain (Homo sapiens, UniProt P05106); assay: Binding of Fyn-phosphorylated phage to β3 cytoplasmic domain; settings: phage phosphorylated by Fyn versus unphosphorylated phage
T3 construct: recombinant fusion proteins containing β3 or β5 cytoplasmic domains
T3 sequence (P05106 742-788 limits assumed): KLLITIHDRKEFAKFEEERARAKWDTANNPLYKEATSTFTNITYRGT
Experimental: Phosphorylation of peptide libraries with src family protein kinases (Fyn, c-Src, Lyn, and Syc) and serine/threonine kinases such as a MAP kinase were performed as described previously (Schmitz et al., 1996; Dente et al., 1997; Gram et al., 1997). Briefly, phage particles were collected from culture supernatants by double precipitation with 20% polyethylene glycol 8000 in 2.5 M NaCl. Particles were dissolved at 10^12 particles/ml. Purified phage (10 μl) were incubated for 3 hours at room temperature with different concentrations (35 to 3,500 units) of protein kinases in a reaction buffer volume of 50 μl. The reaction mixtures were transferred to tubes containing 10 μg of agarose-conjugated anti-P-Tyr, anti-P-Ser, or anti-P-Thr monoclonal antibodies to select phage displaying phosphorylated peptides. […] Phosphorylated peptides binding to β3 and β5 cytoplasmic domains were analyzed as described in the previous section.
Randomly selected clones from rounds III and IV were sequenced from a X4YX4 phosphorylated library with Fyn. […] The ratio of binding to β3 or β5 was calculated by dividing the number of β3 or β5 colonies by GST or BSA colonies found after panning. The ratio of binding to β3 or β5 with phosphorylated phage by Fyn versus unphosphorylated phage was calculated by dividing the number of colonies found after the panning. […]

[7] = lower concentrations, not shown

T2 sequence (Q07075 whole entry): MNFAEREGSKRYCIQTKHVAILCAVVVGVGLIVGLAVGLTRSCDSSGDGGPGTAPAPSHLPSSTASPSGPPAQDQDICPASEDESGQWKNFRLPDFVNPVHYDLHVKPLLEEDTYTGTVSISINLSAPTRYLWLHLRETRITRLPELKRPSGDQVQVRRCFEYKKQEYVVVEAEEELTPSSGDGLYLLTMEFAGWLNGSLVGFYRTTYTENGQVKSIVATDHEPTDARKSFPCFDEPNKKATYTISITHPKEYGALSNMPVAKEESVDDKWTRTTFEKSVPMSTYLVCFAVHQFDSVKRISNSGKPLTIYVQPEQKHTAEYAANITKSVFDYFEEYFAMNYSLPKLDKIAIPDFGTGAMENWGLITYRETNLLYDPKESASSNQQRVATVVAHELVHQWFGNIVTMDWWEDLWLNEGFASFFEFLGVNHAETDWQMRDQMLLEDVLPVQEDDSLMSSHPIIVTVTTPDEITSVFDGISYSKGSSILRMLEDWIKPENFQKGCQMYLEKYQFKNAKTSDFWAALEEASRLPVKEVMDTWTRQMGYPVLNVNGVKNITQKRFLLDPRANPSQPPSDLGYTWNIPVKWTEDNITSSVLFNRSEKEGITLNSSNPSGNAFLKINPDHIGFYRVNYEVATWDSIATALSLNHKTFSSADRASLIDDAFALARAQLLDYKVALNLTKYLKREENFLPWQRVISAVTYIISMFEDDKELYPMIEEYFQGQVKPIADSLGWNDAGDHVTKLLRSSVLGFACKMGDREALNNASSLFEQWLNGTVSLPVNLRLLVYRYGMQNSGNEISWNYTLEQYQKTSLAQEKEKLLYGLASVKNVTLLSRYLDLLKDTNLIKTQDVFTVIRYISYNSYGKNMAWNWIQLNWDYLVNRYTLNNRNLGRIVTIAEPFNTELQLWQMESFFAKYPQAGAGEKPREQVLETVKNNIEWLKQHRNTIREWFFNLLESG
T1 sequence (Q07075 whole entry): as above

Row | Molecule | competition with CPKVCPRECESNC phage for binding to SK-RC-49/APA cells (APA (SK-RC-49/APA cells)) | HUVEC morphogenesis / capillary-like network (HUVECs [1]; 1 mM, 24 h) | formation of capillary-like network (HUVECs [1]; increasing concentrations) | inhibition of chemotaxis of HUVECs (HUVECs [2]; 1 mM, VEGF-A 10 ng/ml, 5 h, FIG. 24) [%] | effect on cell migration (HUVECs [2]; [7]) | inhibition of HUVEC proliferation (HUVECs [3]; 1 mM, VEGF-A 10 ng/ml, FIG. 25) [%] | effect on cell proliferation (HUVECs [3]; [7]) | inhibition of VEGF-A-induced neovascularization (number of capillaries emerging from the sponge) ([4]; 1 mM, VEGF-A 20 ng, day 12) [%] | effect on the number of growing vessels ([4]; lower peptide concentrations, not shown) | reduction of APA enzyme activity [5] [%] | Phos/Unphos [6]
1 | CC[C@H](C)[C@H](NC(=O)[C@H](CO)NC(=O)[C@H](CCC(=O)O)NC(=O)[C@H](CS)NC(=O)[C@H](CCC(=O)O)NC(=O)[C@H](CCCNC(=N)N)NC(=O)[C@@H]1CCCN1C(=O)[C@@H](N)CS)C(=O)N[C@@H](CS)C(=O)O (H-CPRECESIC-OH) | competed | vessel-like branching structures were significantly fewer and shorter | progressive impairment of the formation of this network | 70 | no significant effect | 50 | no significant effect | 40 | no effect | 60 | 
2 | MLLGYRFEK |  |  |  |  |  |  |  |  |  |  | 2.5
